# Assay results from US5658880A, “Sialic acid/fucose based medicaments” (Glycomed Incorporated, priority 1994, dated 1997).
# pIC50: −log10 of the molar value.
# Key:
# P-selectin = assay: ELISA: inhibition of P-selectin-IgG chimera binding to 2,3 sLe^x glycolipid; set-up: species or system human; details: inhibition of binding to 2,3 sLex glycolipid
# From the text: (§1) An ELISA assay is preferably used that employs recombinant fusion proteins composed of extracellular portions of the human selectins joined to human immunoglobulin heavy chain CH3, CH2, and hinge regions. See, for example, Walz et al., Science (1990) 250:1132; Aruffo et al., Cell (1991) 67:35; Aruffo et al., Proc. Natl. Acad. Sci. USA. (1992) 89:2292. The assay is well known in the art, and generally consists of the following three steps:
# (§2) I. 2,3 sLe^x glycolipid (25 picomole/well) was transferred into microtiter wells as solutions and then evaporated off. Excess, which remained unattached, was washed off with water. The wells were then blocked with 5% BSA at room temperature for an hour and then washed with PBS containing 1 mM calcium.
# (§3) II. Preparation of "multivalent" receptor of the Selectin-lgG chimera was carried out by combining the respective chimera (1 μg/mL) with biotin labelled goat F(ab')2 anti-human IgG (Fc specific) and streptavidin-alkaline phosphatase diluted 1:1000 in 1% BSA-PBS (1 mM calcium) and incubating at 37° C. for 15 min. This allowed the soluble multivalent receptor complex to form. III. Potential inhibitors such as the compounds of formula I or II were allowed to react with the soluble receptor at 37° C. for 45 min. This test assumes that optimal binding, between the soluble phase receptor complex and the inhibitor (non natural ligand), would have occurred within this time frame. This solution was then placed in the microtiter wells that were prepared in step I. The plate was incubated at 37° C. for 45 minutes to allow the soluble receptor to bind to its natural ligand. In the presence of a strong inhibitor only a few receptors should be free to bind to the microtiter plate coated with the natural ligand.
# (§4) The positive control is the signal produced by the soluble receptor when it is allowed to react with 2,3 sLe^x glycolipid in the microtiter wells in the absence of any inhibitor. This positive control was considered 100% binding. The signal produced by the receptor that had been previously treated with an inhibitor (recorded as O.D.), was divided by the signal produced by the positive control and multiplied by 100 to calculate the % receptor bound to the well in the presence of the inhibitor. The reciprocal of this number is the % inhibition.
# as §1, with “was employed” for “is preferably used”, “uses” for “employs”, “USA” for “USA.”
# (§5) II. Preparation of "multivalent" receptor of the Selectin-IgG chimera was carried out by combining the respective chimera 1 μg/ml) with biotin labelled goat F(ab')2 anti-human IgG (Fc specific) and streptavidin-alkaline phosphatase diluted 1:1000 in 1% BSA-PBS (1 mM calcium) and incubating at 37° C. for 15 min. This allowed the soluble multivalent receptor complex to form.
# (§6) III. Potential inhibitors such as compounds of formula I or II were allowed to react with the soluble receptor at 37° C. for 45 min. This test assumes that optimal binding, between the soluble phase receptor complex and the inhibitor (non natural ligand), would have occurred within this time frame. This solution was then placed in the microtiter wells that were prepared in step I. The plate was incubated at 37° C. for 45 minutes to allow the soluble receptor to bind to its natural ligand. In the presence of a strong inhibitor only a few receptors should be free to bind to the microtiter plate coated with the natural ligand.
# (§7) The positive control is the signal produced by the soluble receptor when it is allowed to react with 2,3 sLe^x glycolipid in the microtiter wells in the absence of any inhibitor. This was considered 100% binding. […]
# E-selectin = assay: ELISA: inhibition of E-selectin-IgG chimera binding to 2,3 sLe^x glycolipid; set-up: species or system human; details: inhibition of binding to 2,3 sLex glycolipid
# From the text: as §1, §2, §3, §4
# as §1, with “was employed” for “is preferably used”, “uses” for “employs”, “USA” for “USA.”
# as §5, §6, §7
# L-selectin = assay: ELISA: inhibition of L-selectin-IgG chimera binding to 2,3 sLe^x glycolipid; set-up: species or system human
# From the text: as §1, §2, §3, §4
# as §1, with “was employed” for “is preferably used”, “uses” for “employs”, “USA” for “USA.”
# as §5, §6, §7
# [1] = test system: neutrophil migration into the peritoneum; assay: Murine thioglycollate induced peritonitis: neutrophil migration to the peritoneal cavity; format: in vivo, mouse (Swiss Webster); details: mice, tail vein injection, 3 h after thioglycollate, FIG. 7(a) and (b)
# From the text: The efficaciousness of 7 and 10 was shown using a murine thioglycollate induced peritonitis model. The assay materials and methods are known in the art, or are generally described by Lewinsohn, D. et al., J. Immun., 138:4313-4321 (1987), or Watson, S. et al., Nature 349:164-166 (1991). This assay measures the ability of the compounds to inhibit neutrophil migration to the peritoneal cavity, the migration being initiated by the presence of thioglycollate in the peritoneal cavity. Thioglycollate is a known and effective inflammatory agent that causes neutrophil migration into the mouse peritoneum when it is administered intraperitoneally. Lewinsohn, D. et al., J. Immun. (1987) 138:4313-4321. Briefly, female Swiss Webster mice weighing about 25 grams were injected in the tail vein with 200 μl of phosphate buffered saline (PBS) with or without the appropriate compound. The pH of the solutions was adjusted to neutrality by the addition of either NaOH or HCL and sterilized by filtration through a 0.2 μ filter. Immediately following injection with the appropriate compound or PBS, the mice were injected intraperitoneally with 1 ml of thioglycollate medium prepared as described by the manufacturer, BBL. Three hours following injection of the thioglycollate solution the mice were sacrificed by CO2 asphyxiation, and the number of cells in the peritoneum removed by lavage with 5 ml of heparinized (5 U/ml) 0.9% sodium chloride solution containing 0.1% bovine serum albumin. Cell number was determined using a Coulter Counter. The cells were prepared for counting by diluting the lavage fluid with 1:50 of a commercial physiological isotonic solution, Isoton II, and the cells lysed by adding S/P Lysing and Hemoglobin Reagent (1:100 final dilution). Cell nuclei were counted in a sized window with lower and upper limits set at 3.9 and 5.7 μm, respectively.
smiles,measurement,setting,value
"CC(OCCCCCCOC1O[C@@H](C)[C@@H](O)[C@@H](O)[C@@H]1O)C(=O)O (stereo partly drawn) [Compound 10, 1-O-(α-β-L-Fucopyranosyl)-6-O-[(R,S)-1-Carboxyethyl]-Hexane]",pIC50,P-selectin,~3.30
same,pIC50,E-selectin,2.52 to 2.70
same,"inhibition of L-selectin binding to 2,3 sLe^x glycolipid","L-selectin; FIG. 5 and FIG. 6, result in words",at all four concentrations of the compound tested there is significant inhibitory activity
same,pIC50,"L-selectin; inhibition of binding to 2,3 sLex glycolipid",2.52 to 2.70
same,inhibit neutrophil migration into the peritoneum,[1],inhibit neutrophil migration into the peritoneum
